These results are taken from patent US10596145B2, “Heterocyclic flavone derivatives, compositions, and methods related thereto” (Emory University, priority 2012, dated 2020).

Experiment [1] concerns the target T1, TrkB (Mus musculus, UniProt P15209).
T1 construct: from tissue; host or cells: mouse brain (hippocampus, cortex), C57BL/6
Description: TrkB phosphorylation in mouse brain after oral administration (immunoblotting, immunohistochemistry). The class given is in vivo. As for the experimental part: One mg/kg of various indicated compounds were orally administrated into C57 BL/6J mice and TrkB phosphorylation and its downstream signaling cascades including Akt and MAPK in the hippocampus of mouse brain were analyzed by immunoblotting at 4 h. […] The downstream p-Akt and p-MAPK activity coupled to the TrkB activation patterns.
Time course assay with 4′-dimethylamino-7,8-imidazole flavone. One mg/kg of compound (i) and compound (m) were orally administrated into C57 BL/6J mice and TrkB phosphorylation and its downstream signaling cascades including Akt in mouse brain were analyzed by immunoblotting at various time points. TrkB activation by compound m peaked at 4 h, whereas the maximal TrkB activation by compound i in mouse brain occurred at 1-2 h. Arrows indicate the p-TrkB in mature glycosylated or unglycosylated forms (top panels). The downstream Akt activation pattern tightly correlated with the upstream TrkB activation.
(§1) Male C57BL/6 mice aged of two months were administrated orally with 4′-DMA-7,8-DHF derivatives at a single dose of 1 mg/kg for 4 h. The control mice were injected with saline. The mice were sacrificed and brains were homogenated and ultracentrafuged. The supernatant (40 μg) was employed for SDS-PAGE and immunoblotting analysis with indicated antibodies, respectively. Male C57BL/6 mice aged of two months were administrated orally with compound (i) or (m) at the dose of 5 mg/kg/day each and compound o or p at the dose of 2.5 mg/kg/day each for 21 days. BrdU (100 mg/kg) was i. p. injected two hours before the TrkB agonist treated animals were sacrificed and the hippocampal section lysates were analyzed by immunoblotting with p-TrkB and total TrkB antibodies, p-AKT ELISA.
Brain tissues were fixed in 4% paraformaldehyde overnight followed by paraffin embedding. Sections of 6 μm were cut. For immunohistochemical staining, brain sections were deparaffinized in xylene and rehydrated in graded alcohols. Endogenous peroxidase activity was blocked by 3% hydrogen peroxide for 5 min and all slides were boiled in 10 mM sodium citrate buffer (pH 6.0) for 10 min. Phosphorylated TrkB 816 and TrkB were detected using specific antibodies. Paraffin section were deparaffinized in xylene and rehydrated gradient ethanol solution. Samples were boiled in 10 mM sodium citrate buffer for 20 min for antigen retrieval purpose. Brain sections were incubated with anti-TrkB (BD Biosciences, San Jose, Calif.) 1:50, p-TrkB 1:300 dilution. Secondary antibody was applied using anti-rabbit-Alexa 594 (red), anti-mouse-fluorescein isothiocyanate (FITC) (green). DAPI (blue) was used for nuclear staining.

The target in experiment [2] is T2, TrkB (Rattus norvegicus, UniProt Q63604).
T2 construct: endogenous in cells; host or cells: primary cortical neurons from E17 rat embryos
Description: TrkB activation in primary cortical neurons (immunoblotting). The class given is cell-based. The settings on record: 500 nM, 15 min. The procedure: Primary cortical cultures from E17 rat embryos were treated with 500 nM of various synthetic flavone derivatives for 15 min. The cell lysates (20 μg) were analyzed by the immunoblotting.
Rat primary neurons were treated with 500 nM various indicated compounds from 15 min. The neuronal lysates ([…]) were analyzed with various antibodies.
500 nM of different synthetic compounds were added to DIV 7 neurons for 15 min. The cell lysates were analyzed by immunoblotting with indicated p-Akt 473 antibodies.
Replacing the 3′-dimethylamino group or 4′-morpholino group was tested for TrkB agonistic activity. To compare the TrkB activation by these compounds, primary cortical cultures were prepared and treated them with 500 nM of various compounds for 15 min and collected the cell lysates. […] The p-Akt ELISA analysis results were similar to the TrkB activation pattern (FIG. 2B, lower panel).
(A western blot detects proteins with antibodies after separation by electrophoresis.)

The test system of experiment [3] is C57BL/6J mice. Kind of experiment: Forced swim test. The settings on record: 5 mg/kg oral once a day, 3 weeks. The class given is in vivo, mouse. The procedure: Male C57BL/6J mice (6 mice/group) were orally administrated by gavage with 5 mg/kg compound (m) or compound (i) and vehicle solvent saline for 21 days and subjected to a forced swim test (6 min, immobility recorded in the last 4 min). Data are presented as mean±SEM. (n=6, ***P<0.0001 vs vehicle, Student t-test).
Forced swim test. Male C57BL/6J mice (8 mice/group) were orally administrated by gavage with 2.5 mg/kg compound o or compound p and vehicle solvent saline for 21 days and subjected to a forced swim test (6 min, immobility recorded in the last 4 min). […] Data are presented as mean±SEM.
Adult male mice (2-3 months old) were randomly submitted to a forced swim test without a preswim. Test compounds were orally administrated by gavage for 21 days. The mice were allowed to adapt to the test room for 2 days. The mice were placed in a clear glass cylinder with a diameter of 16 cm, half-filled with clear water at 24° C.

The test system of a further experiment is Akt. Description: Downstream Akt activation in mouse brain (p-Akt immunoblotting, p-Akt 473 ELISA). The class given is in vivo. The conditions noted are these: 1 mg/kg oral. As for the experimental part:
PathScan Phospho-Akt1 (Ser473) Sandwich ELISA kit was purchased from Cell Signaling (Cat. #7160). 100 μl sample in sample diluent (supplied in the kit) was added to each well and incubated overnight at 4° C. After 4× wash with 200 ul wash buffer (supplied in the kit), 100 ul/well detection antibody was added and incubated for 1 hour at 37° C. After 4× wash, 100 μl of HRP-linked secondary antibody (supplied in the kit) was added and incubated for 30 minutes at 37° C. After a final wash, 100 μl of TMB substrate was added to each well and incubated for 10 minutes at 37° C. The reaction was stopped by adding 100 μl/well stop solution. Record the values of each well using microplate reader at 450 nm and 650 nm. The optical density was determined by the subtraction of the reading at 650 nm from the reading s at 450 nm.
as §1

Experiment [4] has as its system C57BL/6J mice. Description: Locomotor activity assay. The class given is in vivo, mouse. The settings on record: 5 mg/kg oral, 21 days, tested at day 22. As for the experimental part: The above drug-treated mice were subjected locomotor activity at day 22. […] Data are presented as mean±SEM.
Locomotor activity was assessed using an automated system (San Diego Instruments, La Jolla, Calif., USA) with photobeams that recorded ambulations (consecutive beam breaks). Drug-treated mice were placed in the locomotor chambers, and their activity was recorded for 2 h with 30 min interval.

The target in the next experiment is T3, TrkA (Mus musculus, UniProt Q3UFB7).
T3 construct: from tissue; host or cells: mouse brain lysates of chronically treated C57BL/6J mice
Kind of experiment: TrkA activation in mouse brain (anti-p-TrkA 794 immunoblotting). The class given is in vivo. The conditions noted are these: 5 mg/kg/day oral, chronically treated mice. The procedure:
The brain lysates from above chronically treated mice were analyzed by immunoblotting with anti-p-TrkA 794 and p-TrkB 816.
as §1

Structures are written as SMILES. “Also recorded” adds a separate entry of the source.

T1 sequence (P15209 32-821): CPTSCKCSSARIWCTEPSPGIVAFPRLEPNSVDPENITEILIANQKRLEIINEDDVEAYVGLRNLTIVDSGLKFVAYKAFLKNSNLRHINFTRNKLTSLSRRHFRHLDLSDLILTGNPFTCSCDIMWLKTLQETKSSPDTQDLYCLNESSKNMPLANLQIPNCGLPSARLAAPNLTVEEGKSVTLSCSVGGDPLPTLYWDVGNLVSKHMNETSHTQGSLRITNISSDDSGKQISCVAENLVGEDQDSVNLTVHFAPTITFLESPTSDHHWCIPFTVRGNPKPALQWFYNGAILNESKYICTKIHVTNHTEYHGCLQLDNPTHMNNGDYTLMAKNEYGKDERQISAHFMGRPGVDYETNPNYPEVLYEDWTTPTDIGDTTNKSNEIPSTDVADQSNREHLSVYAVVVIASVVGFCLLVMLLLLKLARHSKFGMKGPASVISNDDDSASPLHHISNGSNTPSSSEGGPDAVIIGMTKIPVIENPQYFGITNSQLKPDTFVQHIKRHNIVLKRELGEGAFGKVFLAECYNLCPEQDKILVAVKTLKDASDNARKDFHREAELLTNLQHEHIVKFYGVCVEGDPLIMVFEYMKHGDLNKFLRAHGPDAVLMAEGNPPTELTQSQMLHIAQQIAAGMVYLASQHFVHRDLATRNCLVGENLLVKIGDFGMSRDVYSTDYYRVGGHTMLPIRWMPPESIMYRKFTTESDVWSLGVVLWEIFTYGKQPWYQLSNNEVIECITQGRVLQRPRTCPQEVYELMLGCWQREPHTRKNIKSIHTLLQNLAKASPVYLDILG
T2 sequence (Q63604 32-821): as the sequence (P15209 32-821) above, with T3M, S9T, A10T, V32I, R63K, S84G, M153T, L185I, S394T, S770N counted along it
T3 sequence (Q3UFB7 34-799): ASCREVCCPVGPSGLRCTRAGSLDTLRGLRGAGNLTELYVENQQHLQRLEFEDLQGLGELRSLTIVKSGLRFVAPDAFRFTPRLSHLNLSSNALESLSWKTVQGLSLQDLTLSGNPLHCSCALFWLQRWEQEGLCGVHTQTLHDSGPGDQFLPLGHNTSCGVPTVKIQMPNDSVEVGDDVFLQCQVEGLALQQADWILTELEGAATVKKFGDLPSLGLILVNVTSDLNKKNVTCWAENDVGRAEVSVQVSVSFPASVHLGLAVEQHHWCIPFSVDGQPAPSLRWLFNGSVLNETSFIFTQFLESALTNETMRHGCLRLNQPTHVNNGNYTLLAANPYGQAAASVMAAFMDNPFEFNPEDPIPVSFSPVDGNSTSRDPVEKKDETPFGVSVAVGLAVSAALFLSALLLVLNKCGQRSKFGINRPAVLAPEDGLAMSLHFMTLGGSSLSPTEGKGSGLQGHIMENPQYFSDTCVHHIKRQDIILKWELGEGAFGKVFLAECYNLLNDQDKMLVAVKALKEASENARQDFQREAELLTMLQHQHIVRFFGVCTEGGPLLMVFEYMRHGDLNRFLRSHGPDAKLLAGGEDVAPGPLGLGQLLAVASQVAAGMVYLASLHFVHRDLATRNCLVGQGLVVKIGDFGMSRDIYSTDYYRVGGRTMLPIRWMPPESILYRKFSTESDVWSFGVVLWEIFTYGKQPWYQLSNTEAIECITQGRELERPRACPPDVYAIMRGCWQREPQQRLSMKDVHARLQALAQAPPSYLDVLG

Take `CN(C)c1ccc(-c2cc(=O)c3ccc4nc[nH]c4c3o2)cc1` [compound m, 8-(4-(dimethylamino)phenyl)chromeno[7,8-d]imidazol-6(1H)-one]: the “TrkB activation in mouse brain” value at TrkB [1] (1 mg/kg oral, hippocampus, at 4 h) is “robustly activated TrkB; also recorded: strongest TrkB stimulatory effect”. Also, at TrkB [1] (1 mg/kg oral, time course), the “time at which TrkB activation fades away” value worked out at 16 h and the “time of peak TrkB activation in mouse brain” value is recorded as 4 h. Besides, the “TrkB phosphorylation after chronic treatment” value at TrkB [1] (5 mg/kg/day oral, 3 weeks, cortex and hippocampus) is on record as “escalated TrkB phosphorylation; also recorded: stronger effect than compound i”. For the same compound, at TrkB [2], the “TrkB activation (p-TrkB immunoblotting)” value was “stronger effect in triggering TrkB activation than compound 4′-DMA-7,8-DHF”. On TrkB [2] (listed as 4′-Dimethylamino-7,8-imidazole flavone), the “TrkB activation (p-TrkB immunoblotting)” value is on record as “stronger TrkB stimulatory activity than compound a”. Besides, in the experiment with C57BL/6J mice [3], the “immobility in forced swim test” value is “decreased the immobility in FST; also recorded: significantly reduced the immobility; also recorded: more robust than that of compound i”. The “downstream p-Akt and p-MAPK signalings” value in the experiment on Akt (at 4 h) is recorded as “strongly activated”. For the same compound, the “p-Akt signal elevation compared to the control at peak” value in the experiment on Akt (at 8 h) was “about 250%”. The “time of peak p-Akt activation (p-Akt ELISA)” value in the experiment on Akt (time course) is 8 h. In addition, in the experiment on C57BL/6J mice [4], the locomotor activity entry is “highly augmented the locomotor activity; also recorded: substantially augmented locomoter activity; also recorded: significantly increased the locomotor activity”. For the same compound, on TrkA, the “TrkA activation in mouse brain” value is “not TrkA”.
